One test deals with A. fumigatus AF72. Description: EUCAST broth microdilution growth inhibition (OD 530 nm, 384-well). The class given is cell-based. Conditions: Aspergillus fumigatus, strain AF72 (ITC-resistant), 48 h. As to the method:
(§1) The antifungal activities of the test compounds against A. fumigatus strains (itraconazole [ITC]-susceptible strains NCPF2010, AF294, and AF293; ITC-resistant strains AF72 and AF91) were calculated from growth curves generated by spectrophotometric analysis and compared to the activities against positive and negative controls.
(In broth dilution the organism is exposed to a series of concentrations in liquid medium.)

The test system of the next test is A. fumigatus AF294. The description is as above. The class given is cell-based. Conditions: Aspergillus fumigatus, strain AF294 (ITC-susceptible), 48 h. As to the method: as §1
The next test deals with A. fumigatus NCPF2010. Described as above. The format is cell-based. Conditions: Aspergillus fumigatus, strain NCPF2010 (ITC-susceptible), 48 h, range tested 0.002 to 1 μg/ml. Here is the method: as §1
Another test concerns A. fumigatus AF293. Described as above. Conditions: Aspergillus fumigatus, strain AF293 (ITC-susceptible), 48 h. The class given is cell-based. As to the method:
as §1

Another test relates to A. fumigatus AF91. Described as above. The format is cell-based. The note with it: Aspergillus fumigatus, strain AF91 (ITC-resistant), 48 h. Here is the method: as §1
For a further test, the system named is A. fumigatus isolates. Details: method as in PMID 12202554. Conditions: MFC = lowest dilution yielding less than 3 colonies; cited from earlier work.
The test system of test [1] is A. fumigatus (ATCC 13073 [strain NIH 5233]). Nature of the test: MIC against the strain used in vivo. The format is cell-based. The note with it: Aspergillus fumigatus, ATCC13073; strain ATCC 13073; read-out: MIC.

Molecules are shown by their SMILES. Converted amounts (≈) assume the structure as drawn.

In the case of `CC[C@H](C)C[C@H](C)CCCCCCCCC(=O)N[C@H]1C[C@@H](O)[C@@H](NCCN)NC(=O)[C@@H]2[C@@H](O)CCN2C(=O)[C@H]([C@H](O)CCN)NC(=O)[C@H]([C@H](O)[C@@H](O)c2ccc(O)cc2)NC(=O)[C@@H]2C[C@@H](O)CN2C(=O)[C@H]([C@@H](C)O)NC1=O` [Caspofungin, caspofungin], the IC50 (in general, the point on the concentration scale where inhibition reaches its midpoint) in the test on A. fumigatus AF72 is 0.065 µg/mL (≈ 0.0595 µM); with A. fumigatus AF294 it was more than 1 µg/mL; in the test with A. fumigatus NCPF2010 it was 0.065 µg/mL (≈ 0.0595 µM); with A. fumigatus AF293 it was more than 1 µg/mL; in the test on A. fumigatus AF91 it was 0.11 µg/mL (≈ 0.101 µM). For the same compound, the IC90 in the test on A. fumigatus AF72, in the test on A. fumigatus AF294, in the test with A. fumigatus NCPF2010, with A. fumigatus AF293 and in the test on A. fumigatus AF91 was more than 1 µg/mL in each case.
For the compound `C[C@@H]1[C@H](O)[C@@H](C)/C=C/C=C/C=C/C=C/C=C/C=C/C=C/[C@H](O[C@@H]2O[C@H](C)[C@@H](O)[C@H](N)[C@@H]2O)C[C@@H]2O[C@](O)(C[C@@H](O)C[C@@H](O)[C@H](O)CC[C@@H](O)C[C@@H](O)CC(=O)O[C@H]1C)C[C@H](O)[C@H]2C(=O)O` [Amphotericin B, amphotericin B], the IC50 with A. fumigatus AF72 is 0.12 µg/mL (≈ 0.13 µM); with A. fumigatus AF294, 0.21 µg/mL (≈ 0.227 µM); in the test with A. fumigatus NCPF2010 it was 0.2 µg/mL (≈ 0.216 µM); in the test with A. fumigatus AF293 it was 0.24 µg/mL (≈ 0.26 µM); in the test with A. fumigatus AF91, 0.28 µg/mL (≈ 0.303 µM). Further, the concentration for an effect of 90% (IC90) (as a rule, the point of the concentration-response curve where the effect stands at 90%) in the test on A. fumigatus AF72 came out at 0.42 µg/mL (≈ 0.455 µM); in the test with A. fumigatus AF294, 0.79 µg/mL (≈ 0.855 µM); in the test on A. fumigatus NCPF2010, 0.62 µg/mL (≈ 0.671 µM); in the test on A. fumigatus AF293, 0.85 µg/mL (≈ 0.92 µM); in the test on A. fumigatus AF91 it was 0.75 µg/mL (≈ 0.812 µM).
Take `CCC(C)n1ncn(-c2ccc(N3CCN(c4ccc(OCC5COC(Cn6cncn6)(c6ccc(Cl)cc6Cl)O5)cc4)CC3)cc2)c1=O` (centres unmarked) [Itraconazole, itraconazole]: the “range of MFCs for inhibition of 90% of isolates tested (MFC90)” value in the test with A. fumigatus isolates is 0.2 to 4 µg/mL. For the same compound, the minimal inhibitory concentration (MIC) (usually the lowest concentration found to suppress growth) in test [1] came to 0.5 µg/mL (≈ 0.709 µM). Besides, the concentration for half-maximal inhibition (IC50) with A. fumigatus AF72 was found to be 0.31 µg/mL (≈ 0.439 µM); in the test on A. fumigatus AF294 it was 0.041 µg/mL (≈ 0.0581 µM); with A. fumigatus NCPF2010, 0.037 µg/mL (≈ 0.0524 µM); in the test with A. fumigatus AF293, 0.032 µg/mL (≈ 0.0453 µM); in the test with A. fumigatus AF91 it was 0.22 µg/mL (≈ 0.312 µM). Also, the IC90 in the test on A. fumigatus AF72 was more than 1 µg/mL; in the test with A. fumigatus AF294, 0.052 µg/mL (≈ 0.0737 µM); in the test on A. fumigatus NCPF2010, 0.054 µg/mL (≈ 0.0765 µM); with A. fumigatus AF293, 0.23 µg/mL (≈ 0.326 µM); with A. fumigatus AF91 it was more than 1 µg/mL.

The values are drawn from paper PMC5923123, “In Vitro and In Vivo Efficacy of a Novel and Long-Acting Fungicidal Azole, PC1244, on Aspergillus fumigatus Infection” (Antimicrobial Agents and Chemotherapy, 2018).
